From US8063035B2, “Triazolyl aminopyrimidine compounds” (Eli Lilly and Company, priority 2007, dated 2011)
Read-outs that look alike come from different tables or passages of the source.

Key:
A549 = A549 murine xenograft; cited from earlier work
[1] = in man, phase II clinical trials; cited from earlier work
[2] = in man; cited from earlier work
NCIH460 = NCIH460 murine xenograft; cited from earlier work
HCT116 = HCT116 murine xenograft; cited from earlier work
[3] = biological target: T1, Plk1-Flag-His6 tag fusion enzyme (Homo sapiens, UniProt P53350); test: Plk1 Inhibition Assay; type: biochemical; conditions: absolute IC50, 5.0 μM ATP, GST-Cdc25c (1-206) substrate, 60 min; MSR 3.6
T1 construct: FLAG (C); His6 (C); made in house; host or cells: Sf9 insect cells (baculovirus, pFastBac), treated with okadaic acid before harvest; The substrate was made in E. coli BL21 (pGEX-2T)
T1 sequence (P53350 whole entry, the tested form may be a part): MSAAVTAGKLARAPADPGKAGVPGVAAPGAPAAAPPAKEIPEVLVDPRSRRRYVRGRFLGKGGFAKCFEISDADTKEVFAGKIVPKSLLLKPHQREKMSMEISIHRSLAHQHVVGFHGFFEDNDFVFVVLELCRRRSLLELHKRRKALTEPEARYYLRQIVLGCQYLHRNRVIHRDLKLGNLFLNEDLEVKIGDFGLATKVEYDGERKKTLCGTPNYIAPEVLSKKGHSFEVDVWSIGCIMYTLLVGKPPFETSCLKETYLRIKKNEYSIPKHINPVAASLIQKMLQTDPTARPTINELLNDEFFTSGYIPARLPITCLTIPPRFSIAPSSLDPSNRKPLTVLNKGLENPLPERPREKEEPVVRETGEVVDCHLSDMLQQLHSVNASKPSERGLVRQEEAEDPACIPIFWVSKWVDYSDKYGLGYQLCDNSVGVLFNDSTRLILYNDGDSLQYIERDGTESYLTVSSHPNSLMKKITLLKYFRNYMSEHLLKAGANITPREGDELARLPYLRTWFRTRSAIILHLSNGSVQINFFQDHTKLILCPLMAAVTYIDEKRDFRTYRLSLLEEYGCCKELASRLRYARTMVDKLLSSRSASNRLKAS
Excerpt: Human Plk1 cDNA may be directly linked at one of its termini with a polynucleotide sequence expressing a His6 tag, such as the C-terminal FLAG-His6 tag, and inserted into an appropriate expression vector, such as a pFastBac™ vector (Invitrogen) and transfected into an appropriate system, such as baculovirus similar to what has been reported by Yue-Wei Qian, et al., Science, 282, 1701 (1998) for xPlkk1. If a viral expression system is used, then the virus (e.g., baculovirus bearing a Plk1-Flag-His6 tag polynucleotide construct) is infected into a culture of a suitable host cell, such as Sf9 cells. […]
Plk1 kinase reactions contain Plk1-Flag-His6 tag fusion enzyme (0.2 ng/μL) in a buffer containing 50 mM HEPES, pH 7.3, 1.0 mM dithiothreitol, 5.0 μM ATP, 10 mM MgCl2, 0.01% TRITON® X-100, 0.4 μCi ^33P-ATP, and […] GST-Cdc25c (1-206) peptide. […] Wells are dried before addition of 40 μL of MicroScint™20 (Packard) and then counted on a Wallac MICROBETA® Jet. The percentage inhibition values from the 10-point concentration response data are subsequently analyzed, for example, using ACTIVITY BASE™ software (IDBS), using a 4-parameter logistic equation. Absolute IC50 values are calculated from the resulting curve fit.

HCT116 cells = test: Antiproliferative Assay; type: cell-based; conditions: Homo sapiens, HCT-116, 72 hours, Alamar Blue, n=2, MSR 3.1
Description: The effects of compounds on cell proliferation can be determined using cells and cell proliferation methods well-known in the art (Robert C. Squatrito et al., Gynecological Oncology, 58, 101-105, (1995)). For example, HCT116 cells, which may be obtained from the American Type Culture Collection, may be seeded at ˜2000 cells/well in 96-well plates and allowed to attach overnight in a humidified CO2 incubator at 37° C. Following the 20-24 hour incubation, half-log serially diluted compounds are added and the plates are returned to the incubator. After an appropriate length of exposure (e.g., 72 hours), cell proliferation is estimated using well-known methods. In one method, 10 μL of a tetrazolium salt, such as Alamar Blue™ is added to the cell plates.

HeLa Cells = test: pHH3(S10), Mitotic Cells, and DNA Content Assays; type: cell-based; conditions: Homo sapiens, 23 hours exposure
Description: HeLa Cells are plated at 200 cells/well in 96 well […] BIOCOAT™ plates, and are incubated in MEM (Minimum Essential Medium) with 10% FBS (Fetal Bovine Serum) in 37° C., 5% CO2 for 24 hours. Cells are treated by adding compound (in 0.25% DMSO) to the medium, dosing at 10 points across the range 0.5 μM to 0.0098 μM. After 23 hours exposure to the compounds, cells are fixed, for example with the PREFER™ fixative for 30 min then are permeablized with 0.1% TRITON® X100 in phospate buffered saline (PBS) solution for 15 min. Cells are washed 3 times with PBS then digested with 50 μg/mL RNAse. Primary antibody, anti-phosphohistone H3 Serine 10, is added at 1:500 in PBS with 1% bovine serum albumin (BSA) to the cells over night at 4° C. After 3 PBS washes, cells are incubated with Alexa488 labeled secondary antibody for 1 hour at room temperature. Again they are washed 3 times with PBS, and then 15 μM propidium iodide is added for 30 min to stain nuclei. Fluorescence Plates are scanned with ACUMEN EXPLORER™ [Laser-scanning fluorescence microplate cytometer (comprising of 488 nm argon ion laser excitation and multiple photomultiplier tube detection), manufactured by TTP LABTECH LTD] to measure phosphohistone H3, DNA content and mitotic cells as measured by DNA condensation. Image analysis are based on cellular fluorescent signals for identifying cells in different subpopulations. pHH3(S10) positive cells are identified by mean intensity at 500-530 nm above the threshold. Total intensity at 655-705 nm from propidium iodide/DNA is used to identify individual cells (cells with DNA content from 2N to 4N) and subpopulations in cell cycle (2N cells, 4N cells). Peak intensity at 575-640 nm is used to identify DNA condensation that is used as the marker to identify mitotic cells among 4N cells. Assay outputs are percentage of each identified subpopulations, % pHH3, % 2N, % 4N, % mitotic and total cell number. The EC50 is determined by curve fitting to a four parameter logistic for each output using ACTIVITY BASE™.

Row | IC50 [3] [nM] | IC50 (HCT116 cells) [nM] | EC50 (HeLa Cells; MSR 2.4, read-out: DNA content EC50) [nM] | EC50 (HeLa Cells; MSR 2.5, read-out: mitotic EC50) [nM] | EC50 (HeLa Cells; MSR 2.6, read-out: pHH3(s10) EC50) [nM] | Structure (SMILES) | activity in preclinical model (A549) | dose-limiting toxicity [1] | clearance (CL) [2] [mL/min] | activity in preclinical model (NCIH460) | activity in preclinical model (HCT116)
1 |  |  |  |  |  | CC[C@@H]1C(=O)N(C)c2cnc(Nc3ccc(C(=O)NC4CCN(C)CC4)cc3OC)nc2N1C1CCCC1 [BI-2536] | demonstrated activity | dose limited by myelosupression | > 1000 | demonstrated activity | demonstrated activity
2 | 11 | 119 | 40 | 36 | 37 | CC(N)c1ccc(F)cc1-c1cccc2cc(-c3nc(NCCn4ccnn4)ncc3F)sc12 (racemic) [Example 57, N-(2-(1H-1,2,3-Triazol-1-yl)ethyl)-4-(7-(2-(1-amino-ethyl)-5-fluorophenyl)-benzo[b]thiophen-2-yl)-5-fluoropyrimidin-2-amine] |  |  |  |  | 
